Test results from the supplement of paper PMC12137928.
Counter-ions that a name gives are not always drawn.

Experiments:
HCT116 [1] = assay: efficacy (maximum % inhibition of viability vs DMSO); higher = more cytotoxic; conditions: 72 h
In short: (§1)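 HCT116 cells were plated at 250 per well in 1536-well plates and allowed 5 h to attach. CellTiter-Glo luminescence was normalized to vehicle as 0% and positive control as -100%, followed by pattern correction. Four-parameter Hill fits provided IC50 and maximal efficacy.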

HCT116 [2] = conditions: 72 h
In short: as §1

Compound	IC50 cell viability (HCT116 [2]; ICRF193 0 nM)	IC50 cell viability (HCT116 [2]; ICRF193 200 nM)	efficacy (HCT116 [1]; ICRF193 0 nM)	efficacy (HCT116 [1]; ICRF193 200 nM)
C[C@]12CCC(=O)C=C1[C@@H]1C[C@@H]1[C@H]1[C@@H]3[C@@H]4C[C@@H]4[C@@]4(CCC(=O)O4)[C@@]3(C)CC[C@@H]12 [Drospirenone]	18.3 µM	23.1 µM	51.3%	49.1%
CNCC[C@H](Oc1cccc2ccccc12)c1cccs1 [Duloxetine hydrochloride]	18.3 µM	20.6 µM	93%	105%
CC(=O)[C@H]1CC[C@H]2[C@@H]3C=CC4=CC(=O)CC[C@@]4(C)[C@@H]3CC[C@]12C [Dydrogesterone]	> 45.8 µM	20.6 µM		41.7%
CC[C@H]1CN2CCc3cc(OC)c(OC)cc3[C@@H]2C[C@@H]1C[C@H]1NCCc2cc(OC)c(OC)cc21 [EMETINE DIHYDROCHLORIDE]	0.146 µM	0.13 µM	70.8%	76.6%
C=C1CC[C@H](O)C/C1=C/C=C1\CCC[C@]2(C)[C@@H]([C@H](C)/C=C/[C@H](C)C(C)C)CC[C@@H]12 [ERGOCALCIFEROL]	> 45.8 µM	29.1 µM		56.2%
Cc1cc(-c2ccc(/N=N/c3ccc4c(S(=O)(=O)O)cc(S(=O)(=O)O)c(N)c4c3O)c(C)c2)ccc1/N=N/c1ccc2c(S(=O)(=O)O)cc(S(=O)(=O)O)c(N)c2c1O [EVANS BLUE]	18.3 µM	18.3 µM	95.6%	87.8%
Clc1ccc(COC(Cn2ccnc2)c2ccc(Cl)cc2Cl)cc1 (stereo unspecified) [Econazole nitrate]	20.6 µM	20.6 µM	90.3%	96%
O=C1Nc2ccc(Cl)cc2[C@@](C#CC2CC2)(C(F)(F)F)O1 [Efavirenz]	20.6 µM	25.9 µM	56.7%	44.6%
CC1=C(C(=O)OCCN(Cc2ccccc2)c2ccccc2)C(c2cccc([N+](=O)[O-])c2)C(P2(=O)OCC(C)(C)CO2)=C(C)N1 (stereo unspecified) [Efonidipine hydrochloride monoethanolate]	16.4 µM	> 45.8 µM	41.1%	
CC1=NN(c2ccc(C)c(C)c2)C(=O)/C1=N\Nc1cccc(-c2cccc(C(=O)O)c2)c1O [Eltrombopag olamine]	6.51 µM	> 45.8 µM	41.9%	
CNC(=O)c1ccc(N2C(=S)N(c3ccc(C#N)c(C(F)(F)F)c3)C(=O)C2(C)C)cc1F [Enzalutamide]	> 45.8 µM	20.6 µM		45.8%
COc1cccc2c1C(=O)c1c(O)c3c(c(O)c1C2=O)C[C@@](O)(C(=O)CO)C[C@@H]3O[C@H]1C[C@H](N)[C@@H](O)[C@H](C)O1 [Epirubicin hydrochloride]	0.73 µM	1.46 µM	91.9%	73.8%
C/C(=C\c1csc(C)n1)[C@@H]1C[C@@H]2O[C@]2(C)CCC[C@H](C)[C@H](O)[C@@H](C)C(=O)C(C)(C)[C@@H](O)CC(=O)O1 [Epothilone B]	0.00517 µM	0.0073 µM	66%	45.8%
CN1C[C@H](C(=O)N[C@]2(C)O[C@@]3(O)[C@@H]4CCCN4C(=O)[C@H](Cc4ccccc4)N3C2=O)C=C2c3cccc4[nH]cc(c34)C[C@H]21 [Ergotamine tartrate]	> 45.8 µM	18.3 µM		70.8%
C=C1C[C@@H]2CC[C@@]34C[C@H]5O[C@H]6[C@@H](O3)[C@H]3O[C@H](CC[C@@H]3O[C@H]6[C@H]5O4)CC(=O)C[C@@H]3[C@@H](OC)[C@@H](C[C@H](O)CN)O[C@H]3C[C@H]3O[C@@H](CC[C@@H]1O2)C[C@@H](C)C3=C [Eribulin mesylate]	0.0651 µM	0.164 µM	90.6%	77.5%
CCOc1ccc2nc3cc(N)ccc3c(N)c2c1 [Ethacridine lactate hydrate]	18.3 µM	29.1 µM	54.4%	50.6%
CCOc1ccc(Cc2nccc3cc(OCC)c(OCC)cc23)cc1OCC [Ethaverine hydrochloride]	6.51 µM	> 45.8 µM	61.3%	
C#C[C@]1(OC(C)=O)CC[C@H]2[C@@H]3CCC4=C[C@@H](OC(C)=O)CC[C@@H]4[C@H]3CC[C@@]21C [Ethynodiol diacetate]	> 45.8 µM	23.1 µM		47.1%
COc1cc([C@@H]2c3cc4c(cc3[C@@H](O[C@@H]3O[C@@H]5CO[C@@H](C)O[C@H]5[C@H](O)[C@H]3O)[C@H]3COC(=O)[C@H]23)OCO4)cc(OC)c1OP(=O)(O)O [Etoposide  Phosphate]	0.517 µM	0.366 µM	60.8%	79.9%
COc1cc([C@@H]2c3cc4c(cc3[C@@H](O[C@@H]3O[C@@H]5CO[C@@H](C)O[C@H]5[C@H](O)[C@H]3O)[C@H]3COC(=O)[C@H]23)OCO4)cc(OC)c1O [Etoposide]	29.1 µM	2.91 µM	66.7%	99.1%
Cc1cc(C#N)cc(C)c1Oc1nc(Nc2ccc(C#N)cc2)nc(N)c1Br [Etravirine]	29.1 µM	29.1 µM	49%	54.9%
C=CC[C@@H]1/C=C(\C)C[C@H](C)C[C@H](OC)[C@H]2O[C@@](O)(C(=O)C(=O)N3CCCC[C@H]3C(=O)O[C@H](/C(C)=C/[C@@H]3CC[C@@H](O)[C@H](OC)C3)[C@H](C)[C@@H](O)CC1=O)[C@H](C)C[C@@H]2OC [FK-506]	6.51 µM	4.61 µM	78.2%	45.5%
CCc1c(Cl)c(O)c(Cl)c(O)c1C(=O)O[C@H]1[C@H](O)[C@H](OC)[C@H](OC/C2=C\C=C\C[C@H](O)/C(C)=C/[C@H](CC)[C@@H](O[C@@H]3OC(C)(C)[C@@H](OC(=O)C(C)C)[C@H](O)[C@@H]3O)/C(C)=C/C(C)=C/C[C@@H]([C@@H](C)O)OC2=O)O[C@@H]1C [Fidaxomicin]	20.6 µM	20.6 µM	103%	53.2%
O=c1[nH]c(=O)n([C@H]2C[C@H](O)[C@@H](CO)O2)cc1F [Floxuridine]	2.91 µM	1.16 µM	49.1%	43%
O=c1[nH]cc(F)c(=O)[nH]1 [Fluorouracil]	10.3 µM	20.6 µM	59.5%	55.4%
Cc1cc(C2=NOC(c3cc(Cl)cc(Cl)c3)(C(F)(F)F)C2)ccc1C(=O)NCC(=O)NCC(F)(F)F (stereo unspecified) [Fluralaner]	18.3 µM	29.1 µM	96.5%	104%
C[C@@H]1C[C@H]2[C@@H]3C[C@H](F)C4=CC(=O)C=C[C@]4(C)[C@@]3(F)[C@@H](O)C[C@]2(C)[C@@]1(OC(=O)c1ccco1)C(=O)SCF [Fluticasone furoate]	29.1 µM	> 45.8 µM	83.8%	
C[C@]12Cc3nonc3C[C@@H]1CC[C@@H]1[C@@H]2CC[C@@]2(C)[C@H]1CC[C@]2(C)O [Furazabol]	18.3 µM	23.1 µM	46.7%	51.4%
CC/N=C(\NCC)NCCCC[C@H](NC(=O)[C@H](CC(C)C)NC(=O)[C@@H](CCCCN/C(=N/CC)NCC)NC(=O)[C@H](Cc1ccc(O)cc1)NC(=O)[C@H](CO)NC(=O)[C@@H](Cc1cccnc1)NC(=O)[C@@H](Cc1ccc(Cl)cc1)NC(=O)[C@@H](Cc1ccc2ccccc2c1)NC(C)=O)C(=O)N1CCC[C@H]1C(=O)N[C@H](C)C(N)=O [Ganirelix]	4.61 µM	5.17 µM	80.9%	82.7%

Continued, in another order:

IC50 cell viability (HCT116 [2]; ICRF193 0 nM)	IC50 cell viability (HCT116 [2]; ICRF193 200 nM)	Compound	efficacy (HCT116 [1]; ICRF193 0 nM)	efficacy (HCT116 [1]; ICRF193 200 nM)
20.6 µM	29.1 µM	CCCCc1oc2ccc(NS(C)(=O)=O)cc2c1C(=O)c1ccc(OCCCN(CCCC)CCCC)cc1 [Dronedarone hydrochloride]	115%	68.2%
29.1 µM	23.1 µM	CC(C)(C)c1ccc(C(=O)CCCN2CCC(OC(c3ccccc3)c3ccccc3)CC2)cc1 [Ebastine]	115%	112%
> 45.8 µM	0.103 µM	CC(C)c1cc2c(cc1S(=O)(=O)O)[C@@]1(C)CCC[C@@](C)(C(=O)O)[C@@H]1CC2 [Ecabet]		63.3%
> 45.8 µM	29.1 µM	CCCCCCCC(=O)N[C@H](CN1CCCC1)[C@H](O)c1ccc2c(c1)OCCO2 [Eliglustat (Tartrate)]		44.2%
18.3 µM	20.6 µM	COc1cc2c(cc1Cc1cccc(Cl)c1F)c(=O)c(C(=O)O)cn2[C@H](CO)C(C)C [Elvitegravir]	71.8%	83%
> 45.8 µM	14.6 µM	C#Cc1cccc(Nc2ncnc3cc(OCCOC)c(OCCOC)cc23)c1 [Erlotinib]		50.4%
> 45.8 µM	20.6 µM	CCCCC(=O)O[C@H]1CC[C@H]2[C@@H]3CCc4cc(O)ccc4[C@H]3CC[C@]12C [Estradiol valerate]		49.3%
18.3 µM	29.1 µM	C[C@]12CC[C@@H]3c4ccc(O)cc4CC[C@H]3[C@@H]1CC[C@@H]2O [Estradiol]	49.5%	51.8%
> 45.8 µM	20.6 µM	C#C[C@]1(O)CC[C@H]2[C@@H]3CCc4cc(O)ccc4[C@H]3CC[C@@]21C [Ethinylestradiol]		41.1%
0.0259 µM	0.0231 µM	CC[C@@]1(O)C(=O)OCc2c1cc1n(c2=O)Cc2c-1nc1cc(F)c(C)c3c1c2[C@@H](N)CC3 [Exatecan]	60%	48.8%
29.1 µM	23.1 µM	C=C1/C(=C\C=C2/CCC[C@]3(C)[C@@H]([C@H](C)CCCC(O)(C(F)(F)F)C(F)(F)F)CC[C@@H]23)C[C@@H](O)C[C@@H]1O [Falecalcitriol]	68.9%	96.5%
18.3 µM	18.3 µM	CCOC(=O)C1=C(C)NC(C)=C(C(=O)OC)C1c1cccc(Cl)c1Cl (stereo unspecified) [Felodipine]	47.4%	52%
> 45.8 µM	18.3 µM	N#Cc1c(N2C[C@@H]3NCCO[C@H]3C2)c(F)cc2c(=O)c(C(=O)O)cn(C3CC3)c12 [Finafloxacin]		72.2%
29.1 µM	20.6 µM	CCCCCCCCc1ccc(CCC(N)(CO)CO)cc1 [Fingolimod hydrochloride]	108%	100%
20.6 µM	18.3 µM	Fc1ccc(C(c2ccc(F)cc2)N2CCN(C/C=C/c3ccccc3)CC2)cc1 [Flunarizine]	109%	80%
18.3 µM	18.3 µM	CN1CCN(CCCN2c3ccccc3Sc3ccc(C(F)(F)F)cc32)CC1 [Fluoperazine dihydrochloride]	92.3%	94.5%
20.6 µM	20.6 µM	CCCCCCCCCC(=O)OCCN1CCN(CCCN2c3ccccc3Sc3ccc(C(F)(F)F)cc32)CC1 [Fluphenazine decanoate dihydrochloride]	81%	99.6%
29.1 µM	20.6 µM	OCCN1CCN(CCCN2c3ccccc3Sc3ccc(C(F)(F)F)cc32)CC1 [Fluphenazine hydrochloride]	110%	104%
22.4 µM	35.5 µM	CC(CN1c2ccccc2Sc2ccc(S(=O)(=O)N(C)C)cc21)N(C)C (stereo unspecified) [Fonazine]	56%	70.3%
20.6 µM	29.1 µM	COc1cc2ncnc(Nc3ccc(F)c(Cl)c3)c2cc1OCCCN1CCOCC1 [Gefitinib]	86.4%	98.2%
